Where two headings read alike, the source gives them in different places.
Columns and labels:
Folr1^−/− embryos = conditions: maternal supplementation, dose dependent ("tunable"); cited from earlier work
[1] = tested on: neural tube defects (NTDs); conditions: periconceptional intake of supplemental folic acid, some populations; cited from earlier work
Amt null embryos = conditions: maternal supplementation; cited from earlier work
Mthfd1l^z/z embryos [2] = conditions: for Crown-rump length: E15.5
From the text: Mice. All protocols used within this study were approved by the Institutional Animal Care and Use Committee of The University of Texas at Austin and conform to the National Institutes of Health Guide for the Care and Use of Laboratory Animals. All mice were maintained on a C57Bl/6 genetic background. Mice harboring a floxed conditional knockout cassette between exons 4 and 6 of Mthfd1l were obtained from the Wellcome Trust Sanger Institute (EUCOMM ID 37226). Mice carrying the floxed Mthfd1l allele were mated to mice expressing Cre recombinase under control of the E2a promoter (E2a-Cre) (Lakso M, et al. (1996) Proc. Natl. Acad. Sci. U.S.A 93:5860-5865) to generate heterozygous Mthfd1l^z/+ embryos lacking exon 5 and the neomycin resistance cassette (FIG. 2A). All mice were given ad libitum access to water and standard mouse chow (LabDiet 5K67).
Maternal Supplementation with Calcium Formate. Mthfd1l^z/+ matings were set up in a cage equipped with a water bottle containing 0.0096M, 0.019M, 0.056M or 0.096M calcium formate. The females had access to the supplemented water at least one day before observation of the plug. These concentrations were calculated to deliver 250, 500, 1500 or 2500 mg calcium formate/kg/day, respectively, based on an average water intake of 5 mL per day for a 25 g C57BL/6 mouse (Green EL ed (1966) Biology of the Laboratory Mouse (Dover Publications, Inc., New York), 2nd Ed, p 706). The effect of formate supplementation was analyzed by a two-tailed T-test for crown-rump length
Pregnant dams were administered calculated doses of 250-2500 mg/kg/day.

Mthfd1l^z/z embryos [3] = test: Maternal supplementation with sodium formate, Mthfd1l^z/+ matings; format: in vivo, mouse
Description: Maternal Supplementation with Sodium Formate.
Because deletion of Mthfd1l is expected to result in loss of mitochondrial formate production, experiments were conducted to determine if maternal formate supplementation would improve development of Mthfd1l^z/z embryos. Pregnant dams were given ad libitum access to water containing sodium formate to achieve a calculated dose of 5000 or 7500 mg sodium formate/kg/day; controls were given water without formate. […] When dams were supplemented with 5000 mg/kg/day sodium formate, 4 Mthfd1l^+/+, 14 Mthfd1l^z/+, and 8 Mthfd1l^z/z embryos were obtained from 3 litters between E15.5-18.5. […] Next, the morphology of E10.5-E15.5 embryos from dams supplemented with 7500 mg/kg/day sodium formate was examined, obtaining 10 Mthfd1l^+/+ embryos, 31 Mthfd1l^z/+ embryos and 14 Mthfd1l^z/z embryos from 6 litters, again conforming to the expected Mendelian ratio (p=0.48). […] Importantly, 6 of the 14 Mthfd1l^z/z embryos were dissected from dams at E13.5 or E15.5, whereas no surviving Mthfd1l^z/z embryos were observed after E12.5 from unsupplemented dams. While supplemented versus non-supplemented embryos were not compared after E12.5 due to lethality of the unsupplemented embryos, formate supplementation partially rescued the growth defect in Mthfd1l^z/z embryos (FIGS. 5A, 5B). […] Supplementation had no significant effect on crown-rump length of wild-type embryos (5.9±0.2 mm).

[4] = 250 mg/kg, of 6 Mthfd1l^z/z embryos
[5] = 250 mg/kg, of 6 Mthfd1l^z/z embryos (Table 2)
[6] = 250 mg/kg, of 6 Mthfd1l^z/z embryos (Table 3)
[7] = 500 mg/kg, of 11 Mthfd1l^z/z embryos
[8] = 500 mg/kg, of 11 Mthfd1l^z/z embryos (Table 2)
[9] = 500 mg/kg, of 11 Mthfd1l^z/z embryos (Table 3)
[10] = 1500 mg/kg, Mthfd1l^z/z embryos
[11] = 1500 mg/kg, of 13 Mthfd1l^z/z embryos
[12] = 1500 mg/kg, of 13 Mthfd1l^z/z embryos (Table 2)
[13] = 1500 mg/kg, of 13 Mthfd1l^z/z embryos (Table 3)
[14] = 2500 mg/kg, Mthfd1l^z/z embryos
[15] = 2500 mg/kg, of 15 Mthfd1l^z/z embryos
[16] = 2500 mg/kg, of 15 Mthfd1l^z/z embryos (Table 2)
[17] = 2500 mg/kg, of 15 Mthfd1l^z/z embryos (Table 3)
[18] = 3500 mg/kg, Mthfd1l^z/z embryos
[19] = 3500 mg/kg, of 10 Mthfd1l^z/z embryos
[20] = 3500 mg/kg, of 10 Mthfd1l^z/z embryos (Table 2)
[21] = 3500 mg/kg, of 10 Mthfd1l^z/z embryos (Table 3)
[22] = dams 5000 mg/kg/day sodium formate in water, 3 litters, E15.5-18.5, distribution vs Mendelian p=0.50
[23] = dams 7500 mg/kg/day sodium formate, 6 litters, E10.5-E15.5, vs Mendelian p=0.48
[24] = embryos lacking Mthfd1l, maternal supplementation

Nc1nc(=O)c2c([nH]1)NCC(CNc1ccc(C(=O)N[C@@H](CCC(=O)O)C(=O)O)cc1)N2C=O (mixture of isomers) [5-formyl-THF]
rescue of Folr1 knockout embryonic folate deficiency (Folr1^−/− embryos): can be rescued

Nc1nc2ncc(CNc3ccc(C(=O)NC(CCC(=O)O)C(=O)O)cc3)nc2c(=O)[nH]1 (stereo in doubt) [folic acid, pteroyl-L-glutamic acid]
reduction of the incidence of NTDs [1]: ≤ 70%
neurulation in Amt null embryos (Amt null embryos): no effect

O=C[O-].O=C[O-].[Ca+2] [calcium formate]
NTD, phenotype as a percentage (Mthfd1l^z/z embryos [2]; 250 mg/kg, Mthfd1l^z/z embryos): 0.1667 percentage
no defect observed, phenotype as a percentage (Mthfd1l^z/z embryos [2]; 250 mg/kg, Mthfd1l^z/z embryos): 0 percentage
orofacial defect and NTD, phenotype as a percentage (Mthfd1l^z/z embryos [2]; 250 mg/kg, Mthfd1l^z/z embryos): 0.1667 percentage
orofacial defect, phenotype as a percentage (Mthfd1l^z/z embryos [2]; 250 mg/kg, Mthfd1l^z/z embryos): 0.6667 percentage
no defect observed (number of embryos) (Mthfd1l^z/z embryos [2]; [4]): 0
orofacial defect and NTD (number of embryos) (Mthfd1l^z/z embryos [2]; [4]): 1
number with NTD (Mthfd1l^z/z embryos [2]; [5]): 2
number with facial defect (Mthfd1l^z/z embryos [2]; [5]): 4
NTD (number of embryos) (Mthfd1l^z/z embryos [2]; [6]): 1
orofacial defect (number of embryos) (Mthfd1l^z/z embryos [2]; [6]): 4
NTD, phenotype as a percentage (Mthfd1l^z/z embryos [2]; 500 mg/kg, Mthfd1l^z/z embryos): 0 percentage
no defect observed, phenotype as a percentage (Mthfd1l^z/z embryos [2]; 500 mg/kg, Mthfd1l^z/z embryos): 0.2727 percentage
orofacial defect and NTD, phenotype as a percentage (Mthfd1l^z/z embryos [2]; 500 mg/kg, Mthfd1l^z/z embryos): 0 percentage
orofacial defect, phenotype as a percentage (Mthfd1l^z/z embryos [2]; 500 mg/kg, Mthfd1l^z/z embryos): 0.7273 percentage
no defect observed (number of embryos) (Mthfd1l^z/z embryos [2]; [7]): 3
orofacial defect and NTD (number of embryos) (Mthfd1l^z/z embryos [2]; [7]): 0
number with NTD (Mthfd1l^z/z embryos [2]; [8]): 0
number with facial defect (Mthfd1l^z/z embryos [2]; [8]): 8
NTD (number of embryos) (Mthfd1l^z/z embryos [2]; [9]): 0
orofacial defect (number of embryos) (Mthfd1l^z/z embryos [2]; [9]): 8
NTD, phenotype as a percentage (Mthfd1l^z/z embryos [2]; [10]): 0.07692 percentage
no defect observed, phenotype as a percentage (Mthfd1l^z/z embryos [2]; [10]): 0.6154 percentage
orofacial defect and NTD, phenotype as a percentage (Mthfd1l^z/z embryos [2]; [10]): 0 percentage
orofacial defect, phenotype as a percentage (Mthfd1l^z/z embryos [2]; [10]): 0.3077 percentage
no defect observed (number of embryos) (Mthfd1l^z/z embryos [2]; [11]): 8
orofacial defect and NTD (number of embryos) (Mthfd1l^z/z embryos [2]; [11]): 0
number with NTD (Mthfd1l^z/z embryos [2]; [12]): 1
number with facial defect (Mthfd1l^z/z embryos [2]; [12]): 4
NTD (number of embryos) (Mthfd1l^z/z embryos [2]; [13]): 1
orofacial defect (number of embryos) (Mthfd1l^z/z embryos [2]; [13]): 4
NTD, phenotype as a percentage (Mthfd1l^z/z embryos [2]; [14]): 0.3333 percentage
no defect observed, phenotype as a percentage (Mthfd1l^z/z embryos [2]; [14]): 0.6667 percentage
orofacial defect and NTD, phenotype as a percentage (Mthfd1l^z/z embryos [2]; [14]): 0 percentage
orofacial defect, phenotype as a percentage (Mthfd1l^z/z embryos [2]; [14]): 0 percentage
no defect observed (number of embryos) (Mthfd1l^z/z embryos [2]; [15]): 10
orofacial defect and NTD (number of embryos) (Mthfd1l^z/z embryos [2]; [15]): 0
number with NTD (Mthfd1l^z/z embryos [2]; [16]): 5
number with facial defect (Mthfd1l^z/z embryos [2]; [16]): 0
NTD (number of embryos) (Mthfd1l^z/z embryos [2]; [17]): 5
orofacial defect (number of embryos) (Mthfd1l^z/z embryos [2]; [17]): 0
NTD, phenotype as a percentage (Mthfd1l^z/z embryos [2]; [18]): 0.1 percentage
no defect observed, phenotype as a percentage (Mthfd1l^z/z embryos [2]; [18]): 0.6 percentage
orofacial defect and NTD, phenotype as a percentage (Mthfd1l^z/z embryos [2]; [18]): 0 percentage
orofacial defect, phenotype as a percentage (Mthfd1l^z/z embryos [2]; [18]): 0.3 percentage
no defect observed (number of embryos) (Mthfd1l^z/z embryos [2]; [19]): 6
orofacial defect and NTD (number of embryos) (Mthfd1l^z/z embryos [2]; [19]): 0
number with NTD (Mthfd1l^z/z embryos [2]; [20]): 1
number with facial defect (Mthfd1l^z/z embryos [2]; [20]): 3
NTD (number of embryos) (Mthfd1l^z/z embryos [2]; [21]): 1
orofacial defect (number of embryos) (Mthfd1l^z/z embryos [2]; [21]): 3
growth of Mthfd1l^z/z embryos with increasing maternal intake (Mthfd1l^z/z embryos [2]; 250-2500 mg/kg/day, embryos dissected at E15.5): dose-response effect
Crown-rump length (Mthfd1l^z/z embryos [2]; Mthfd1l^+/+ embryos, 250 mg/kg calcium formate to dams): 1.39 + 0.1 cm
Crown-rump length (Mthfd1l^z/z embryos [2]; Mthfd1l^+/+ embryos, 500 mg/kg calcium formate to dams): 1.32 + 0.17 cm
Crown-rump length (Mthfd1l^z/z embryos [2]; Mthfd1l^+/+ embryos, 1500 mg/kg calcium formate to dams): 1.46 + 0.2 cm
Crown-rump length (Mthfd1l^z/z embryos [2]; Mthfd1l^+/+ embryos, 2500 mg/kg calcium formate to dams): 1.43 + 0.07 cm
Crown-rump length (Mthfd1l^z/z embryos [2]; Mthfd1l^+/+ embryos, 3500 mg/kg calcium formate to dams): 1.34 + 0.2 cm
Crown-rump length (Mthfd1l^z/z embryos [2]; Mthfd1l^z/+ embryos, 250 mg/kg calcium formate to dams): 1.38 + 0.1 cm
Crown-rump length (Mthfd1l^z/z embryos [2]; Mthfd1l^z/+ embryos, 500 mg/kg calcium formate to dams): 1.36 + 0.21 cm
Crown-rump length (Mthfd1l^z/z embryos [2]; Mthfd1l^z/+ embryos, 1500 mg/kg calcium formate to dams): 1.46 + 0.1 cm
Crown-rump length (Mthfd1l^z/z embryos [2]; Mthfd1l^z/+ embryos, 2500 mg/kg calcium formate to dams): 1.39 + 0.09 cm
Crown-rump length (Mthfd1l^z/z embryos [2]; Mthfd1l^z/+ embryos, 3500 mg/kg calcium formate to dams): 1.33 + 0.1 cm
Crown-rump length (Mthfd1l^z/z embryos [2]; Mthfd1l^z/z embryos, 250 mg/kg calcium formate to dams): 1.05 ± 0.1 cm
Crown-rump length (Mthfd1l^z/z embryos [2]; Mthfd1l^z/z embryos, 500 mg/kg calcium formate to dams): 1.03 ± 0.06 cm
Crown-rump length (Mthfd1l^z/z embryos [2]; Mthfd1l^z/z embryos, 1500 mg/kg calcium formate to dams): 1.17 ± 0.13 cm
Crown-rump length (Mthfd1l^z/z embryos [2]; Mthfd1l^z/z embryos, 2500 mg/kg calcium formate to dams): 1.20 ± 0.04 cm
Crown-rump length (Mthfd1l^z/z embryos [2]; Mthfd1l^z/z embryos, 3500 mg/kg calcium formate to dams): 1.1 ± 0.2 cm
NTD and orofacial defect phenotypes (Mthfd1l^z/z embryos [2]; Table 3 and FIG. 6, mouse model): improves NTD and orofacial defect phenotypes in a dose-dependent manner

CSCC[C@H](N)C(=O)O [methionine]
neurulation in Amt null embryos (Amt null embryos): significantly improves neurulation

O=C[O-].[Na+] [sodium formate]
growth of embryos (words, FIG. 5) (Mthfd1l^z/z embryos [3]; 7500 mg sodium formate/kg/day, Mthfd1l^z/z embryos at E11.5 vs unsupplemented dams): improved growth
number of Mthfd1l^z/z embryos with exencephaly (Mthfd1l^z/z embryos [3]; 7500 mg/kg/day sodium formate, of 14 Mthfd1l^z/z embryos): 3
number of Mthfd1l^z/z embryos dissected at E13.5 or E15.5 (survival past E12.5) (Mthfd1l^z/z embryos [3]; 7500 mg/kg/day sodium formate, of 14 Mthfd1l^z/z embryos, none survive after E12.5 unsupplemented): 6
number of Mthfd1l^z/z embryos with normal neural tube closure (Mthfd1l^z/z embryos [3]; 7500 mg/kg/day sodium formate, of 14 Mthfd1l^z/z embryos, p=0.028 vs unsupplemented nulls): 11
number of Mthfd1l^+/+ embryos obtained (Mthfd1l^z/z embryos [3]; [22]): 4
number of Mthfd1l^z/+ embryos obtained (Mthfd1l^z/z embryos [3]; [22]): 14
number of Mthfd1l^z/z embryos obtained (Mthfd1l^z/z embryos [3]; dams 5000 mg/kg/day sodium formate in water, 3 litters, E15.5-18.5, distribution vs Mendelian p=0.50, 0 from unsupplemented dams): 8
number of Mthfd1l^+/+ embryos obtained (Mthfd1l^z/z embryos [3]; [23]): 10
number of Mthfd1l^z/+ embryos obtained (Mthfd1l^z/z embryos [3]; [23]): 31
number of Mthfd1l^z/z embryos obtained (Mthfd1l^z/z embryos [3]; [23]): 14
growth defect (Mthfd1l^z/z embryos [3]; [24]): partially rescue the growth defect
incidence of NTDs (Mthfd1l^z/z embryos [3]; [24]): decrease the incidence of NTDs
Crown-rump length (Mthfd1l^z/z embryos [3]; formate supplemented Mthfd1l^z/z E11.5 embryos, p<0.01 vs unsupplemented (3.6±0.3)): 5.0±0.1 mm
Crown-rump length (Mthfd1l^z/z embryos [3]; wild-type embryos, supplementation had no significant effect): 5.9±0.2 mm

Source: patent US9895328B2, “Calcium formate as a supplement to prevent neural tube defects” (BOARD OF REGENTS, THE UNIVERSITY OF TEXAS SYSTEM, priority 2013, dated 2018)
